Values joined by “and” are separate entries in the source; they are usually repeats but may differ in a detail not shown here. Identical values can stand only once. Inconclusive results and toxic doses are left out. Rule for the calls: active = survival T/C of 150% or more; inactive = T/C below 125% in these data.
Tested on: P388 leukemia ip, CD2F1 mice, survival T/C
Experiment: NCI In Vivo Anticancer Drug Screen. Data for tumor model P388 Leukemia (intraperitoneal) in CD2F1 (CDF1) mice
Conditions: endpoint: median survival time, higher = longer survival
How it was run: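 Mice carrying the transplanted tumor received test compound or vehicle. Survival was recorded in each group, and the value is the treated-group measurement divided by that of the vehicle-treated control group.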

[1] = dose: 50.0 mg/kg/injection, schedule: Q01DX009 (ip), vehicle: saline with Tween-80
[2] = dose: 100.0 mg/kg/injection, schedule: Q01DX009 (ip), vehicle: saline with Tween-80
[3] = dose: 100.0 mg/kg/injection, schedule: Q01DX009 (ip), vehicle: saline
[4] = dose: 200.0 mg/kg/injection, schedule: Q01DX009 (ip), vehicle: saline
[5] = dose: 100.0 mg/kg/injection, schedule: Q04DX002 (ip), vehicle: saline with Tween-80
[6] = dose: 200.0 mg/kg/injection, schedule: Q04DX002 (ip), vehicle: saline with Tween-80
[7] = dose: 400.0 mg/kg/injection, schedule: Q04DX002 (ip), vehicle: saline with Tween-80
[8] = dose: 100.0 mg/kg/injection, schedule: Q04DX003 (ip), vehicle: saline with Tween-80
[9] = dose: 200.0 mg/kg/injection, schedule: Q04DX003 (ip), vehicle: saline with Tween-80
[10] = dose: 400.0 mg/kg/injection, schedule: Q04DX003 (ip), vehicle: saline with Tween-80
[11] = dose: 50.0 mg/kg/injection, schedule: Q01DX005 (ip), vehicle: saline with Tween-80
[12] = dose: 50.0 mg/kg/injection, schedule: Q01DX005 (ip), vehicle: saline
[13] = dose: 100.0 mg/kg/injection, schedule: Q01DX005 (ip), vehicle: saline
[14] = dose: 200.0 mg/kg/injection, schedule: Q01DX005 (ip), vehicle: saline
[15] = dose: 50.0 mg/kg/injection, schedule: Q01DX005 (ip), vehicle: Klucel (hydroxypropylcellulose) (HPC)
[16] = dose: 100.0 mg/kg/injection, schedule: Q01DX005 (ip), vehicle: saline with Tween-80
[17] = dose: 200.0 mg/kg/injection, schedule: Q01DX005 (ip), vehicle: saline with Tween-80

Measured: T/C

O=C(c1cc2c(cc1Br)OCO2)N1CCCc2ccccc21
inactive: dose: 25.0 mg/kg/injection, schedule: Q01DX009 (ip), vehicle: other 100 % of control | dose: 50.0 mg/kg/injection, schedule: Q01DX009 (ip), vehicle: other 97 % of control | dose: 100.0 mg/kg/injection, schedule: Q01DX009 (ip), vehicle: other 102 % of control | dose: 200.0 mg/kg/injection, schedule: Q01DX009 (ip), vehicle: other 97 % of control | dose: 400.0 mg/kg/injection, schedule: Q01DX009 (ip), vehicle: other 93 % of control

Cc1cc(=O)n2c(n1)sc1cc3ccccc3cc12
inactive: dose: 100.0 mg/kg/injection, schedule: Q04DX002 (ip), vehicle: Klucel (hydroxypropylcellulose) (HPC) 98 % of control | dose: 200.0 mg/kg/injection, schedule: Q04DX002 (ip), vehicle: Klucel (hydroxypropylcellulose) (HPC) 100 % of control | dose: 400.0 mg/kg/injection, schedule: Q04DX002 (ip), vehicle: Klucel (hydroxypropylcellulose) (HPC) 99 % of control

CCOC(=O)C1=C(C#N)C2(CCC(OCc3ccccc3)CC2)C(=O)O1 (stereo unspecified)
inactive: dose: 25.0 mg/kg/injection, schedule: Q01DX009 (ip), vehicle: saline with Tween-80 90 % of control | dose: 25.0 mg/kg/injection, schedule: Q01DX009 (ip), vehicle: saline 104 % of control | [1] 92 % of control | dose: 50.0 mg/kg/injection, schedule: Q01DX009 (ip), vehicle: saline 104 % of control and 106 % of control and 100 % of control | [2] 119 % of control | [3] 108 % of control and 116 % of control and 102 % of control | dose: 200.0 mg/kg/injection, schedule: Q01DX009 (ip), vehicle: saline with Tween-80 123 % of control | [4] 119 % of control and 100 % of control

CCOCCC(O)CC (stereo unspecified)
inactive: [3] 90 % of control | dose: 100.0 mg/kg/injection, schedule: Q04DX003 (ip), vehicle: saline 122 % of control | [4] 95 % of control | dose: 200.0 mg/kg/injection, schedule: Q04DX003 (ip), vehicle: saline 104 % of control | dose: 400.0 mg/kg/injection, schedule: Q01DX009 (ip), vehicle: saline 104 % of control

CC(CCc1ccccc1)C(=O)Nc1ccccc1 (stereo unspecified)
inactive: [5] 99 % of control | [6] 96 % of control | [7] 95 % of control

O=[N+]([O-])c1ccc(N=Nc2ccccc2)cc1
inactive: [8] 109 % of control | [9] 100 % of control | [10] 100 % of control

O=C(CCl)N1C(=O)NC(c2ccc(Cl)cc2)(c2ccc(Cl)cc2)C1=O
inactive: dose: 5.0 mg/kg/injection, schedule: Q04DX003 (ip), vehicle: other 105 % of control | dose: 10.0 mg/kg/injection, schedule: Q04DX003 (ip), vehicle: other 116 % of control | dose: 20.0 mg/kg/injection, schedule: Q04DX003 (ip), vehicle: other 108 % of control and 123 % of control

Clc1ccc(CNc2ncnc3[nH]ncc23)cc1Cl
inactive: [8] 104 % of control | [9] 100 % of control | [10] 95 % of control

CCN(CC)CCCC(c1ccccc1)c1ccccc1
inactive: dose: 12.5 mg/kg/injection, schedule: Q01DX005 (ip), vehicle: saline with Tween-80 99 % of control | dose: 25.0 mg/kg/injection, schedule: Q01DX005 (ip), vehicle: saline with Tween-80 94 % of control | [11] 99 % of control and 110 % of control

O=C(O)CCSSCCCCCS(=O)O
inactive: [12] 100 % of control | [13] 104 % of control | [14] 104 % of control

O=C1C[CH]([Ge](=[O])[O][Ge](=[O])[CH]2CC(=O)NC(=O)N2)NC(=O)N1 (stereo unspecified)
inactive: dose: 15.0 mg/kg/injection, schedule: Q01DX005 (ip), vehicle: water 97 % of control | dose: 30.0 mg/kg/injection, schedule: Q01DX005 (ip), vehicle: water 99 % of control | dose: 60.0 mg/kg/injection, schedule: Q01DX005 (ip), vehicle: water 111 % of control | dose: 120.0 mg/kg/injection, schedule: Q01DX005 (ip), vehicle: water 103 % of control and 118 % of control | dose: 240.0 mg/kg/injection, schedule: Q01DX005 (ip), vehicle: water 95 % of control

Cc1c2ccncc2c(C)c2c1[nH]c1ccc(-c3ccccc3)cc12
inactive: dose: 20.0 mg/kg/injection, schedule: Q01DX001 (ip), vehicle: saline with Tween-80 102 % of control | dose: 40.0 mg/kg/injection, schedule: Q01DX001 (ip), vehicle: saline with Tween-80 100 % of control | dose: 80.0 mg/kg/injection, schedule: Q01DX001 (ip), vehicle: saline with Tween-80 99 % of control

CN(C)c1ccc2c(N(C)C)cc(N(C)C)[n+](C)c2c1
inactive: dose: 0.78 mg/kg/injection, schedule: Q01DX009 (ip), vehicle: distilled water + Tween-80 + alcohol 106 % of control | dose: 1.56 mg/kg/injection, schedule: Q01DX009 (ip), vehicle: distilled water + Tween-80 + alcohol 115 % of control

CCCCC(NC(=O)C(CCCC)NC(=O)OCc1ccccc1)C(=O)O (stereo unspecified)
inactive: [15] 108 % of control | dose: 100.0 mg/kg/injection, schedule: Q01DX005 (ip), vehicle: Klucel (hydroxypropylcellulose) (HPC) 93 % of control | dose: 200.0 mg/kg/injection, schedule: Q01DX005 (ip), vehicle: Klucel (hydroxypropylcellulose) (HPC) 95 % of control

CP1(=S)C=C(N2CCCC2)CC1 (stereo unspecified)
inactive: dose: 50.0 mg/kg/injection, schedule: Q01DX009 (ip), vehicle: Klucel (hydroxypropylcellulose) (HPC) 107 % of control and 109 % of control | dose: 100.0 mg/kg/injection, schedule: Q01DX009 (ip), vehicle: Klucel (hydroxypropylcellulose) (HPC) 99 % of control and 120 % of control | dose: 200.0 mg/kg/injection, schedule: Q01DX009 (ip), vehicle: Klucel (hydroxypropylcellulose) (HPC) 104 % of control and 95 % of control

O=c1cccccc1Cl
inactive: [1] 104 % of control | [2] 101 % of control

CC(c1ccc(N2Cc3ccccc3C2=O)cc1)C(O)C(N)=O (stereo unspecified)
inactive: [11] 89 % of control | [16] 92 % of control | [17] 89 % of control

CCCCCC(CN(C)C)C(=O)CC(SCC)c1ccccc1 (stereo unspecified)
inactive: dose: 12.5 mg/kg/injection, schedule: Q01DX009 (ip), vehicle: water 111 % of control | dose: 25.0 mg/kg/injection, schedule: Q01DX009 (ip), vehicle: water 100 % of control

CC(=O)c1ccc(N=C2c3ccccc3CN2c2ccc(C(C)=O)cc2)cc1
inactive: [11] 88 % of control | [16] 89 % of control

CC(=O)NCCCCCCCNC(C)=O
inactive: dose: 60.0 mg/kg/injection, schedule: Q01DX005 (ip), vehicle: saline 104 % of control | dose: 120.0 mg/kg/injection, schedule: Q01DX005 (ip), vehicle: saline 107 % of control | dose: 240.0 mg/kg/injection, schedule: Q01DX005 (ip), vehicle: saline 96 % of control

CC(C)(C)/C(=N\Nc1ccc([N+](=O)[O-])cc1[N+](=O)[O-])c1ccccc1
inactive: dose: 3.13 mg/kg/injection, schedule: Q01DX001 (ip), vehicle: saline with Tween-80 91 % of control | dose: 6.25 mg/kg/injection, schedule: Q01DX001 (ip), vehicle: saline with Tween-80 116 % of control | dose: 12.5 mg/kg/injection, schedule: Q01DX001 (ip), vehicle: saline with Tween-80 95 % of control

CN(C)c1ccc(C2NC(C(=O)O)CS2)cc1 (stereo unspecified)
inactive: dose: 50.0 mg/kg/injection, schedule: Q01DX009 (ip), vehicle: suspension in saline 91 % of control | dose: 100.0 mg/kg/injection, schedule: Q01DX009 (ip), vehicle: suspension in saline 100 % of control | dose: 200.0 mg/kg/injection, schedule: Q01DX009 (ip), vehicle: suspension in saline 100 % of control

O=C1C=C(c2ccccc2)S(=O)(=O)c2cc(O)ccc21
inactive: [11] 119 % of control | [16] 114 % of control | [17] 110 % of control

O=c1cc[nH]c(=O)n1C1OC(CO)C(O)C1O (stereo unspecified)
inactive: [12] 108 % of control | [13] 99 % of control | [14] 102 % of control | dose: 400.0 mg/kg/injection, schedule: Q01DX005 (ip), vehicle: saline 98 % of control

Cc1c[nH]c2nc(C)n(-c3ccccc3)c(=N)c12
inactive: dose: 12.5 mg/kg/injection, schedule: Q01DX005 (ip), vehicle: Klucel (hydroxypropylcellulose) (HPC) 100 % of control | dose: 25.0 mg/kg/injection, schedule: Q01DX005 (ip), vehicle: Klucel (hydroxypropylcellulose) (HPC) 93 % of control | [15] 101 % of control and 96 % of control

N#C/C(=C/c1cc(Br)c2c(c1)OCO2)C(N)=O
inactive: [5] 100 % of control | [6] 98 % of control | [7] 97 % of control

Source: PubChem BioAssay AID330 (DTP/NCI, 2004)
